Series [1] deals with L929 murine fibroblast cell line. As to the kind of experiment: MTT cell viability / cytotoxicity on L929 (healthy cells). It counts as cell-based, mouse. The note with it: mean ± S.D. of three determinations. As for the experimental part:
(§1) In 75 cm^2 sterile plastic tissue culture flasks, the human lung adenocarcinoma A549 and the mouse fibroblast L929 cell lines were cultured in 90% RPMI (Sigma, Deisenhofen, Germany) media supplemented with 10% (v/v) FBS (Gibco, Paisley, UK) and adherent monolayers of penicillin/streptomycin (100 units/mL) from Gibco, Paisley, UK. These cells were cultured at 37 °C in an environment that was humidified and contained 5% CO2.
(§2) The MTT (3-(4,5-dimethylthiazol-2-yl)-2,5-diphenyltetrazolium bromide) method was applicated to assess the cell viability of L929, C6 and A549 cell lines against the tested compounds according to the reported data.[51] In 96-well plates with a flat bottom, the A549, C6, and L929 cells were cultivated at a density of 5 × 10^3 cells per well. […] After addition, they were incubated for a full day in culture wells. Following the incubation period, 20 μL of phosphate-buffered saline (PBS) (Gibco, Paisley, UK) containing 5 mg/mL MTT powder (Sigma-Aldrich, St. Louis, MO, USA) was added to each well. The medium was taken out of the plate and replaced with 100 μL of DMSO in each well to dissolve the dye. This was left for 2 to 4 h under the same conditions and then left for 10 min. At the conclusion of the procedure, purple formazan, the reduction product of the MTT agent, was formed by the mitochondrial dehydrogenase enzyme of intact cells. A microtiter plate reader (BioTek Plate Reader, Winooski, VT, USA) was used to measure the cells at 540 nm. Cell viability was measured as a percentage and contrasted with that of the cells in the control group. Half-maximal inhibitory concentration 50 (IC50) values were determined by repeating each concentration in three wells and identifying the drug concentrations that decreased the absorbance to 50% of control values. The medium control served as the basis for calculating the percentage of viable cells.

The next series concerns C6 rat glioma cell line. Description: MTT cell viability / cytotoxicity on C6. It counts as cell-based. The note with it: mean ± S.D. of three determinations. As for the experimental part: as §2
In series [2] the test system is A549 human lung cancer cell line. As to the kind of experiment: MTT cell viability / cytotoxicity on A549. It counts as cell-based. The note with it: for IC50: Homo sapiens, A549, A549 cell line, MTT, mean ± S.D. of three determinations; for SI (L929/A549): selectivity index = IC50 on normal cells/IC50 on cancer cells; for inhibition of A549 at the lowest concentration tested: A549, MTT. As for the experimental part: as §1, §2

The next series deals with T1, MMP-9 enzyme (Homo sapiens, UniProt P14780).
T1 construct: purchased EnzoLife Sciences Inc. (Farmingdale, New York, NY, USA)
As to the kind of experiment: MMP-9 colorimetric inhibition assay. In kind it is biochemical. Conditions: for inhibition at 100 µg/mL: at 100 μg/mL. The source says:
As described in our previous study,[36] the method was applied in exactly the same manner. EnzoLife Sciences Inc. provided MMP-9 colorimetric kits (Farmingdale, New York, NY, USA). The MMP Colorimetric Drug Discovery Kits are a comprehensive test technique that uses a thiopeptide (Ac-PLG-[2-mercapto-4-methyl-pentanoyl]-LG-OC2H5) as a chromogenic substrate to screen MMP inhibitors. Using a microplate reader (BioTek, PowerWave, Gen5 software, Winooski, VT, USA) at room temperature, the UV absorbance was measured at 412 nm. NNGH was employed as an inhibitor of control.

The next series concerns caspase-3. Description: Caspase-3 activation in A549 cells. The note with it: A549, IC50 of the compounds, 24 h. It counts as cell-based, human. The method, then:
The Spectrofluorometric Caspase-3 Assay kit (BD Pharmingen, Franklin Lakes, NJ) was used to assess the activation of caspase-3. The purpose of the kit was to measure the early indicator of cells going through apoptosis, known as caspase-3 or the DEVD-cleaving activity. First, 1 × 10^6 cells/mL of cells were resuspended in cold cell lysis buffer, rinsed with PBS, and then allowed to sit on ice for 30 min. […] In each reaction, a well containing 0.2 mL of 1 x HEPES buffer was filled with […] of reconstituted AcDEVD-AMC, a synthetic tetrapeptide fluorogenic substrate for caspase-3 activity. Each reaction/well received 20 μL of cell lysate. The reaction mixtures were incubated at 37 °C for 1 h. Using a microplate reader (Perkin-Elmer/Victor/X3) with an excitation wavelength of 380 nm and an emission wavelength of 460 nm, the amount of AMC released from Ac-DEVD-AMC was quantified. When compared with controls, apoptotic cell lysates containing active caspase-3 produced a significant emission. […] For all doses, duplicate wells were used. This experiment was performed according to Yurttaş et al.[52]

The subject of series [3] is A549 cells. As to the kind of experiment: Mitochondrial membrane depolarization (JC-1, flow cytometry). In kind it is cell-based, human. Conditions: A549, IC50 concentration, 24 h. As for the experimental part: Staining of cells with JC-1 was realized according to the manufacturer’s recommendations of BD, Pharmingen Flow cytometry kit. […] For this purpose, cells were seeded at an optimal density in six-well plates (not exceeding 1 × 10^6/mL cells). The cells were then incubated with the substances to be tested at the appropriate concentration and time. After the treatment, each cell suspension was taken into a 15 mL polystyrene centrifuge tube and the cells were centrifuged at 400g for 5 min and removed from the supernatant. 0.5 mL of a freshly prepared working solution was added to each pellet, and the solution was vortexed. The test cells were soaked in a JC-1 working solution at 37 °C for 10–15 min, and the cells were washed twice. In the first wash, 2 mL of 1X assay buffer was added and the cells were suspended sensitively. Then, the cells were centrifuged at 400g for 5 min and the supernatant was removed, carefully. In the second wash, 1 mL of 1X assay buffer was added and vortexed. After the cells were centrifuged at 400g for 5 min, each cell pellet was suspended in 0.5 mL 1X assay buffer and vortexed. Finally, the cell was analyzed by a flow cytometer.
A general note: A flow cytometer gives signals particle by particle.

Series [4] relates to A549 cells. Description: Early/late apoptosis by Annexin V-FITC/PI flow cytometry. It counts as cell-based, human. The note with it: A549, IC50 dose, 24 h incubation.
Experimental: Phosphatidylserine externalization, a marker of early apoptosis, was assessed using the FITC Annexin V apoptosis detection kit (BD Pharmingen, San Jose, CA, USA) on a BD FACSAria flow cytometer. Following their collection, the A549 and L929 cells were twice washed in ice-cold PBS before being resuspended in 100 μL of binding buffer. The cells were treated with a volume of 5 μL (5 μg/mL) of Annexin V-FITC and PI, and they were incubated for 15 min at room temperature (20–25 °C) in the dark. Following that, 400 μL of binding buffer was added to the combination samples, and FACSDiva version 6.1.1 was used to analyze the samples on a BD FACSAria flow cytometer.
The subject of series [5] is A549 cells. Description: Cell cycle analysis by flow cytometry. The note with it: A549, 24 h incubation. It counts as cell-based, human. As for the experimental part:
Following a 24 h incubation period with the compounds, a cell cycle analysis measurement methodology was implemented in compliance with the manufacturer’s instructions for A549 cells (BD, Biosciences). Next, the cells were immersed in citrate buffer for a short while. At room temperature, the cells were centrifuged for 5 min at 400 g. After the supernatant was decanted, 250 μL of solution A was added to the pellet, and it was allowed to sit at room temperature for 10 min. Solution B (200 μL) was then added, carefully mixed, and incubated at room temperature for 10 min. Solution C (200 μL) was then added. It was gently mixed, allowed to stand at 4 °C for 10 min in the dark, and then examined using BD Bioscience’s MODFID software on a flow cytometer. This method was applied in our previous study.[54]

[6] abbreviates: Mus musculus, L929, L929 healthy cell line.

SMILES strings stand for the structures. A value given as a limit tells only on which side of the number the result lay.

T1 sequence (P14780 107-444 limits assumed): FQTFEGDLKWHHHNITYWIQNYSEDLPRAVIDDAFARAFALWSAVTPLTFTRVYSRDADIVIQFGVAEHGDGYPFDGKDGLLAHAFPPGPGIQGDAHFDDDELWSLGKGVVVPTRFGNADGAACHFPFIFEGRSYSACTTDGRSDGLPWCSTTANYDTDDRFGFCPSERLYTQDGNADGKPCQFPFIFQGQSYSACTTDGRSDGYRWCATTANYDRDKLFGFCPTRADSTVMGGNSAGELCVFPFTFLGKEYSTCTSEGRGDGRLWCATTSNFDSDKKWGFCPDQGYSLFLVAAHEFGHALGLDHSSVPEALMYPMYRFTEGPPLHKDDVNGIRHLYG

One may read the melting point as the temperature of the solid-liquid transition. A word on the IC50: it is the midpoint of a concentration-inhibition curve. Higher therefore signals weaker potency in that assay. By inhibition is commonly meant the drop in the measured response relative to a control, in per cent. Read a low inhibition as a response near the control. Take `CC(=O)Nc1ccccc1OCc1nnc(SCC(=O)Nc2nc3ccc(C)cc3s2)o1` [Compound 4e, 2-[(5-((2-Acetamidophenoxy)methyl)-1,3,4-oxadiazol-2-yl)thio]-N-(6-methylbenzothiazol-2-yl)acetamide]: the melting point was 213 to 216 °C. This compound returned a half-inhibitory concentration (IC50) in [1] (setting [6]) of 29.9 ± 3.01 µM. Moreover, the IC50 in the series on C6 rat glioma cell line was determined as 458 ± 28.2 µM. Besides, in series [2], the midpoint of inhibition, the IC50, lay at 43 ± 2.79 µM and the “SI (L929/A549)” value turned out to be 0.69. On MMP-9 enzyme, this compound had an IC50 of 19.5 ± 3.18 µM and an inhibition at 100 µg/mL of more than 50%.
On to `CC(=O)Nc1ccccc1OCc1nnc(SCC(=O)Nc2nc3ccc(F)cc3s2)o1` [Compound 4f, 2-[(5-((2-Acetamidophenoxy)methyl)-1,3,4-oxadiazol-2-yl)thio]-N-(6-fluorobenzothiazol-2-yl)acetamide], for which the melting point fell in the range of 207 to 209 °C. Besides, in the series on caspase-3, the “% (+): caspase-3 activity positive cells” value worked out at 3.4% and the “% (−): caspase-3 activity negative cells” value came to 97.1%. Further, in the series on A549 cells [3], the “mitochondrial membrane depolarization %” value came out at 13.03% and the “mitochondrial membrane polarization %” value was 85.97%. In addition, in the series with A549 cells [4], the “Q1: necrotic cells” value is 26.25%, the “Q2: late apoptotic cells” value is reported as 6.7%, the “Q3: viable cells” value came to 58.53% and the “Q4: early apoptotic cells” value was 8.51%. This compound also returned an IC50 in series [1] (setting [6]) of 19.4 ± 0.89 µM. Further, in the series on C6 rat glioma cell line, 13 ± 3.72 µM corresponded to half-maximal inhibition (IC50). In addition, in the series with A549 cells [5], the “% S” value worked out at 0.0%, the G0/G1% is on record as 63.53% and the G2/M % was determined as 36.47%. The compound further returned an IC50 in [2] of 6.62 ± 0.32 µM. For the same compound, at MMP-9 enzyme, the IC50 came out at 24.5 ± 2.12 µM and the inhibition at 100 µg/mL is more than 75%.
Consider `CCOc1ccc2nc(NC(=O)CSc3nnc(COc4ccccc4NC(C)=O)o3)sc2c1` [Compound 4g, 2-[(5-((2-Acetamidophenoxy)methyl)-1,3,4-oxadiazol-2-yl)thio]-N-(6-ethoxybenzothiazol-2-yl)acetamide], for which the melting point was in the range of 208 to 212 °C. Further, in series [1] (L929 healthy cell line), the IC50 is less than 7.82 µM. Also, the IC50 in series [1] (setting [6]) was less than 7.96 µM. This compound also gave a concentration for half-maximal inhibition (IC50) in the series on C6 rat glioma cell line of 8.16 ± 0.24 µM. Besides, in [2], the “inhibition of A549 at the lowest concentration tested” value is given as “greater than 50%”, the half-inhibitory concentration (IC50) was less than 7.82 µM and the “SI (L929/A549)” value is on record as less than 1. Also, at MMP-9 enzyme, the IC50 is 7.1 ± 1.27 µM and the inhibition at 100 µg/mL was more than 75%.
The compound `CC(=O)Nc1ccccc1OCc1nnc(SCC(=O)Nc2ccccc2)o1` [Compound 4h, 2-[(5-((2-Acetamidophenoxy)methyl)-1,3,4-oxadiazol-2-yl)thio]-N-phenylacetamide] yielded a melting point of 188 to 191 °C. Also, in the series on caspase-3, the “% (+): caspase-3 activity positive cells” value was determined as 2.7% and the “% (−): caspase-3 activity negative cells” value was found to be 97.5%. In the series with A549 cells [3], the “mitochondrial membrane depolarization %” value was 8.75% and the “mitochondrial membrane polarization %” value was determined as 90.74%. Further, in the series on A549 cells [4], the “Q1: necrotic cells” value was 26.94%; the “Q2 + Q4: early and late apoptotic cells” value is on record as 19.20%; the “Q2: late apoptotic cells” value was 7.28%; the “Q3: viable cells” value is on record as 53.94%. Besides, the “Q4: early apoptotic cells” value with A549 cells [4] worked out at 11.84%. Also, it took 31.4 ± 1.76 µM to reach half-maximal inhibition in series [1] (setting [6]) (IC50). The compound further displayed a half-inhibitory concentration (IC50) with C6 rat glioma cell line of more than 1000 µM. Besides, in the series with A549 cells [5], the “% S” value amounted to 0.0%, the G0/G1% is given as 89.66% and the G2/M % amounted to 10.34%. In series [2], the half-maximal inhibitory concentration (IC50) was less than 0.14 µM. At MMP-9 enzyme, this compound registered an IC50 of 1.65 ± 0.21 µM and an inhibition at 100 µg/mL of more than 75%.
Turning to `CC(=O)Nc1ccccc1OCc1nnc(SCC(=O)Nc2ccc([N+](=O)[O-])cc2)o1` [Compound 4j, 2-[(5-((2-Acetamidophenoxy)methyl)-1,3,4-oxadiazol-2-yl)thio]-N-(4-nitrophenyl)acetamide], the melting point was 210 to 215 °C. Besides, the IC50 in series [1] (L929 healthy cell line) is less than 8.8 µM. The IC50 in [1] (setting [6]) was less than 7.96 µM. Besides, the IC50 in the series with C6 rat glioma cell line is more than 1000 µM. Besides, in series [2], the “inhibition of A549 at the lowest concentration tested” value is listed as “greater than 50%”, the concentration for half-maximal inhibition (IC50) is less than 8.8 µM and the “SI (L929/A549)” value is listed as less than 1. On MMP-9 enzyme, this compound displayed an IC50 of 22 ± 1.41 µM and an inhibition at 100 µg/mL of more than 50%.

Values taken from paper PMC10753699, “Synthesis of Some New 1,3,4-Oxadiazole Derivatives and Evaluation of Their Anticancer Activity” (ACS Omega, 2023).
